According to PubChem BioAssay (NCI):
“And” between values parts separate entries of the source, which are not always exact repeats. Identical values can stand only once.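 Interpolation was linear, between the two tested concentrations surrounding the appropriate level; five concentrations were tested over 48 hours in 96-well plates. At the GI50, growth is halved. TGI: concentration producing complete growth inhibition.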

Legend:
Test in all cases: DTP human tumour cell line panel, 48 h
RXF 393 renal = tested on: RXF 393 renal
NCI-H23 lung = tested on: NCI-H23 lung
HL-60(TB) leukemia = tested on: HL-60(TB) leukemia
OVCAR-3 ovarian = tested on: OVCAR-3 ovarian
RPMI-8226 leukemia = tested on: RPMI-8226 leukemia
COLO 205 colon = tested on: COLO 205 colon
SK-MEL-5 melanoma = tested on: SK-MEL-5 melanoma
CAKI-1 renal = tested on: CAKI-1 renal
UO-31 renal = tested on: UO-31 renal
M14 melanoma = tested on: M14 melanoma
SNB-75 CNS = tested on: SNB-75 CNS
MALME-3M melanoma = tested on: MALME-3M melanoma
NCI-H522 lung = tested on: NCI-H522 lung
SR leukemia = tested on: SR leukemia
A549 NSCLC = tested on: A549 NSCLC
XF 498 CNS = tested on: XF 498 CNS
OVCAR-4 ovarian = tested on: OVCAR-4 ovarian
HOP-18 NSCLC = tested on: HOP-18 NSCLC
DMS 114 small cell lung = tested on: DMS 114 small cell lung
SN12C renal = tested on: SN12C renal
HCT-15 colon = tested on: HCT-15 colon
A498 renal = tested on: A498 renal
DLD-1 colon = tested on: DLD-1 colon
CCRF-CEM leukemia = tested on: CCRF-CEM leukemia
HCT-116 colon = tested on: HCT-116 colon
SK-MEL-2 melanoma = tested on: SK-MEL-2 melanoma
786-0 renal = tested on: 786-0 renal
NCI-H460 lung = tested on: NCI-H460 lung
SNB-19 CNS = tested on: SNB-19 CNS
SF-268 CNS = tested on: SF-268 CNS
SF-539 CNS = tested on: SF-539 CNS
SK-MEL-28 melanoma = tested on: SK-MEL-28 melanoma
DMS 273 small cell lung = tested on: DMS 273 small cell lung
HT29 colon = tested on: HT29 colon
LXFL 529 NSCLC = tested on: LXFL 529 NSCLC
LOX IMVI melanoma = tested on: LOX IMVI melanoma
HOP-62 NSCLC = tested on: HOP-62 NSCLC
SK-OV-3 ovarian = tested on: SK-OV-3 ovarian
SNB-78 CNS = tested on: SNB-78 CNS
OVCAR-5 ovarian = tested on: OVCAR-5 ovarian
HOP-92 NSCLC = tested on: HOP-92 NSCLC
SF-295 CNS = tested on: SF-295 CNS
HCC-2998 colon = tested on: HCC-2998 colon
SW-620 colon = tested on: SW-620 colon
KM20L2 colon = tested on: KM20L2 colon
TK-10 renal = tested on: TK-10 renal
UACC-257 melanoma = tested on: UACC-257 melanoma
OVCAR-8 ovarian = tested on: OVCAR-8 ovarian
K-562 leukemia = tested on: K-562 leukemia
IGROV1 ovarian = tested on: IGROV1 ovarian
EKVX NSCLC = tested on: EKVX NSCLC
U251 CNS = tested on: U251 CNS
UACC-62 melanoma = tested on: UACC-62 melanoma
MOLT-4 leukemia = tested on: MOLT-4 leukemia
KM12 colon = tested on: KM12 colon
ACHN renal = tested on: ACHN renal
M19-MEL melanoma = tested on: M19-MEL melanoma
NCI-H226 lung = tested on: NCI-H226 lung

O=c1c2cc(O)ccc2n2nnc3ccc(NCCNCCO)c1c32
GI50 (RXF 393 renal): 3260 nM and 1150 nM | TGI (RXF 393 renal): 14.4 µM and 9.34 µM | TGI (NCI-H23 lung): 42.3 µM and 20.2 µM | GI50 (HL-60(TB) leukemia): 6.46 µM and 1.88 µM | TGI (HL-60(TB) leukemia): > 42.2 µM and 13.1 µM | GI50 (OVCAR-3 ovarian): 14.8 µM and 3.75 µM | TGI (OVCAR-3 ovarian): > 86 µM and 16.3 µM | TGI (RPMI-8226 leukemia): 65 µM and 31.7 µM | TGI (COLO 205 colon): 50.9 µM and 21.7 µM | GI50 (SK-MEL-5 melanoma): 12.9 µM and 2.39 µM | TGI (SK-MEL-5 melanoma): 28.9 µM and 11.7 µM | TGI (CAKI-1 renal): 43 µM and > 61.9 µM | TGI (UO-31 renal): > 100 µM and 70.2 µM | GI50 (M14 melanoma): 11.9 µM and 5.64 µM | TGI (M14 melanoma): 31.2 µM and 17.9 µM | GI50 (SNB-75 CNS): 2.68 µM and 5.5 µM | TGI (SNB-75 CNS): 17 µM and 18.3 µM | GI50 (MALME-3M melanoma): 6.02 µM and 2.56 µM | TGI (MALME-3M melanoma): 20.5 µM and 11.5 µM | GI50 (NCI-H522 lung): 582 nM and 1470 nM | TGI (NCI-H522 lung): 2.33 µM and 4.8 µM | TGI (SR leukemia): 14.7 µM and 4.29 µM | GI50 (A549 NSCLC): 22.9 µM and 5.95 µM | TGI (A549 NSCLC): > 100 µM and 28.9 µM | TGI (XF 498 CNS): 12.4 µM | TGI (OVCAR-4 ovarian): 33.2 µM and 15.9 µM | TGI (HOP-18 NSCLC): > 100 µM and 69.1 µM | TGI (DMS 114 small cell lung): 14.8 µM and 9.51 µM | GI50 (SN12C renal): 5.78 µM and 2.85 µM | TGI (SN12C renal): 51.9 µM and 18.4 µM | TGI (HCT-15 colon): > 100 µM | GI50 (A498 renal): 25.1 µM and 6.77 µM | TGI (A498 renal): > 87.4 µM and 16.7 µM | GI50 (DLD-1 colon): 23.9 µM and 6.6 µM | TGI (DLD-1 colon): > 100 µM and 40.7 µM | GI50 (CCRF-CEM leukemia): 1730 nM and 501 nM | TGI (CCRF-CEM leukemia): > 36.6 µM and 10.6 µM | TGI (HCT-116 colon): > 100 µM and 28.6 µM | GI50 (SK-MEL-2 melanoma): 9.4 µM and 4.34 µM | TGI (SK-MEL-2 melanoma): 23.5 µM and 13.5 µM | TGI (786-0 renal): > 100 µM and 24 µM | GI50 (NCI-H460 lung): 28.9 µM and 4.01 µM | TGI (NCI-H460 lung): > 57.4 µM and 23.6 µM | TGI (SNB-19 CNS): 39.4 µM and 29.1 µM | TGI (SF-268 CNS): 11.2 µM and 13.1 µM | TGI (SF-539 CNS): 15.9 µM and 14.9 µM | GI50 (SK-MEL-28 melanoma): 9.78 µM and 4.3 µM | TGI (SK-MEL-28 melanoma): 22.7 µM and 16.2 µM | TGI (DMS 273 small cell lung): > 59.3 µM | TGI (HT29 colon): > 66.3 µM and 29.1 µM | TGI (LXFL 529 NSCLC): 18.1 µM and 13 µM | TGI (LOX IMVI melanoma): 13.4 µM and 10.2 µM | GI50 (HOP-62 NSCLC): 10.1 µM and 3.25 µM | TGI (HOP-62 NSCLC): 43.4 µM and 18 µM | TGI (SK-OV-3 ovarian): > 100 µM and 37 µM | GI50 (SNB-78 CNS): 4.78 µM and 2.11 µM | TGI (SNB-78 CNS): > 55.9 µM and 14.4 µM | GI50 (OVCAR-5 ovarian): 22.5 µM and 9.69 µM | TGI (OVCAR-5 ovarian): > 100 µM and 34 µM | TGI (HOP-92 NSCLC): 16.5 µM and 12.9 µM | TGI (SF-295 CNS): > 45.5 µM and 35.2 µM | GI50 (HCC-2998 colon): 10.9 µM and 3.43 µM | TGI (HCC-2998 colon): 26.4 µM and 14.5 µM | GI50 (SW-620 colon): 5.16 µM and 1.55 µM | TGI (SW-620 colon): > 88.5 µM and 14.8 µM | GI50 (KM20L2 colon): 27.1 µM and 13.4 µM | TGI (KM20L2 colon): > 100 µM and 44.9 µM | GI50 (TK-10 renal): 3.75 µM and 9.62 µM | TGI (TK-10 renal): > 50 µM and 60.8 µM | GI50 (UACC-257 melanoma): 20.5 µM and 6.76 µM | TGI (UACC-257 melanoma): 53.8 µM and 20.7 µM | TGI (OVCAR-8 ovarian): 42 µM and 17.7 µM | GI50 (K-562 leukemia): 6.58 µM and 2.59 µM | TGI (K-562 leukemia): > 62.8 µM and 14.7 µM | GI50 (IGROV1 ovarian): 14.4 µM and 5.57 µM | TGI (IGROV1 ovarian): > 78.7 µM and 39.1 µM | TGI (EKVX NSCLC): 97 µM and 48.1 µM | TGI (U251 CNS): 7.43 µM and 13.3 µM | GI50 (UACC-62 melanoma): 6.87 µM and 3.14 µM | TGI (UACC-62 melanoma): 19.4 µM and 13.3 µM | GI50 (MOLT-4 leukemia): 1830 nM and 205 nM | TGI (KM12 colon): > 85.3 µM and 25.2 µM | GI50 (ACHN renal): 7.68 µM and 3.58 µM | TGI (ACHN renal): > 64.8 µM and 22.1 µM | GI50 (M19-MEL melanoma): 6.8 µM and 2.68 µM | TGI (M19-MEL melanoma): 20.7 µM and 12.1 µM | TGI (NCI-H226 lung): 26.7 µM and 11.5 µM
